Test results from ChEMBL document CHEMBL1137171, “D-piece modifications of the hemiasterlin analog HTI-286 produce potent tubulin inhibitors” (Bioorg Med Chem Lett, 2004).

What was measured:
Conditions in all cases: Homo sapiens
KB = assay: Compound was tested for cytotoxicity against paclitaxel resistant KB-8-5 cell line expressing P-glycoprotein; format: functional, cell-based
[1] = Compound was tested for cytotoxicity against paclitaxel resistant KB-V1 cell line expressing P-glycoprotein
KB 3-1 = assay: Compound was tested for cytotoxicity against paclitaxel sensitive KB-3-1 cell line; format: functional, cell-based

Row | SMILES | IC50 (KB) [µM] | IC50 [1] [µM] | IC50 (KB 3-1) [µM]
1 | CN[C@H](C(=O)N[C@H](C(=O)N(C)[C@H](/C=C(\C)C(=O)O)C(C)C)C(C)(C)C)C(C)(C)c1ccccc1 [TALTOBULIN] | 0.0023 | 0.077 | 0.00096
2 | CN[C@H](C(=O)N[C@H](C(=O)N(C)[C@H](/C=C(\C)C(C)=O)C(C)C)C(C)(C)C)C(C)(C)c1ccccc1 | 0.664 | 2.36 | 0.403
3 | CN[C@H](C(=O)N[C@H](C(=O)N(C)[C@H](/C=C(\C)C(=O)N1CCCC[C@@H]1C(=O)OC)C(C)C)C(C)(C)C)C(C)(C)c1ccccc1 | 0.017 | 0.15 | 0.0052
4 | CN[C@H](C(=O)N[C@H](C(=O)N(C)[C@H](/C=C(\C)C(=O)N1CC(O)C[C@@H]1C(=O)OC)C(C)C)C(C)(C)C)C(C)(C)c1ccccc1 (some centres not stated) | 0.116 | > 3 | 0.0035
5 | CN[C@H](C(=O)N[C@H](C(=O)N(C)[C@H](/C=C(\C)[C@H](O)c1ccccc1)C(C)C)C(C)(C)C)C(C)(C)c1ccccc1 | 0.186 | 0.632 | 0.124
6 | CN[C@H](C(=O)N[C@H](C(=O)N(C)[C@H](/C=C(\C)C(=O)N1CC=C[C@@H]1C(=O)OC)C(C)C)C(C)(C)C)C(C)(C)c1ccccc1 | 0.017 | 0.272 | 0.0035
7 | CN[C@H](C(=O)N[C@H](C(=O)N(C)[C@H](/C=C(\C)C(=O)N1CC(O)C[C@@H]1C(=O)O)C(C)C)C(C)(C)C)C(C)(C)c1ccccc1 (some centres not stated) | 1.85 | > 3 | 0.184
8 | CN[C@H](C(=O)N[C@H](C(=O)N(C)[C@H](/C=C(\C)C(=O)N1CCC[C@H]1C(=O)OC)C(C)C)C(C)(C)C)C(C)(C)c1ccccc1 | 0.051 | 1.1 | 0.016
9 | CN[C@H](C(=O)N[C@H](C(=O)N(C)[C@H](C(=O)N1CCC[C@@H]1C(=O)O)C(C)C)C(C)(C)C)C(C)(C)c1ccccc1 | > 3 | > 3 | > 3
10 | CN[C@H](C(=O)N[C@H](C(=O)N(C)[C@H](/C=C(\C)C(=O)N1CCC[C@@H]1C(=O)O)C(C)C)C(C)(C)C)C(C)(C)c1cccc(Cl)c1 | 0.18 | > 3 | 0.062
11 | CN[C@H](C(=O)N[C@H](C(=O)N(C)[C@H](C(=O)O)C(C)C)C(C)(C)C)C(C)(C)c1ccccc1 | > 3 | > 3 | > 3
12 | CN[C@H](C(=O)N[C@H](C(=O)N(C)[C@H](/C=C(\C)C(=O)N1CCC[C@@H]1C(=O)OC)C(C)C)C(C)(C)C)C(C)(C)c1cccc(C)c1 | 0.0062 | 0.275 | 0.0016
13 | CN[C@H](C(=O)N[C@H](C(=O)N(C)[C@H](/C=C(\C)C(=O)N1CCC[C@@H]1C(=O)O)C(C)C)C(C)(C)C)C(C)(C)c1ccc(C)c(C)c1 | 0.519 | > 3 | 0.074
14 | CN[C@H](C(=O)N[C@H](C(=O)N(C)[C@H](/C=C(\C)C(=O)N1CCC[C@@H]1C(=O)O)C(C)C)C(C)(C)C)C(C)(C)c1ccccc1 | 0.205 | > 3 | 0.062
15 | CN[C@H](C(=O)N[C@H](C(=O)N(C)[C@H](/C=C1/C(=O)NC(=O)N1C)C(C)C)C(C)(C)C)C(C)(C)c1ccccc1 | 0.0099 | 0.23 | 0.0051
16 | CN[C@H](C(=O)N[C@H](C(=O)N(C)[C@H](/C=C(\C)C=O)C(C)C)C(C)(C)C)C(C)(C)c1ccccc1 | 0.447 | 1.59 | 0.454
17 | CN[C@H](C(=O)N[C@H](C(=O)N(C)[C@H](/C=C(\C)C(=O)N1CC=C[C@@H]1C(=O)O)C(C)C)C(C)(C)C)C(C)(C)c1ccccc1 | 0.184 | > 3 | 0.058
18 | CN[C@H](C(=O)N[C@H](C(=O)N(C)[C@H](/C=C(\C)C(=O)N1CCC[C@H]1C(=O)O)C(C)C)C(C)(C)C)C(C)(C)c1ccccc1 | 1.58 | > 3 | 0.515
19 | CN[C@H](C(=O)N[C@H](C(=O)N(C)[C@H](/C=C(\C)C(=O)N1CCC[C@@H]1C(=O)OC)C(C)C)C(C)(C)C)C(C)(C)C1CCCCC1 | 0.016 | 0.493 | 0.0037
20 | CN[C@H](C(=O)N[C@H](C(=O)N(C)[C@H](/C=C(\C)C(=O)N1CCC[C@@H]1C(=O)OC)C(C)C)C(C)(C)C)C(C)(C)c1cccc(Cl)c1 | 0.0062 | 0.362 | 0.0025

Row | SMILES | IC50 (KB) [µM] | IC50 [1] [µM] | IC50 (KB 3-1) [µM]
21 | CN[C@H](C(=O)N[C@H](C(=O)N(C)[C@H](/C=C(\C)CO)C(C)C)C(C)(C)C)C(C)(C)c1ccccc1 | 0.447 | 1.59 | 0.454
22 | CN[C@H](C(=O)N[C@H](C(=O)N(C)[C@H](/C=C(C)/C=C(\C)C(=O)O)C(C)C)C(C)(C)C)C(C)(C)c1ccccc1 | 0.053 | 1.58 | 0.027
23 | CN[C@H](C(=O)N[C@H](C(=O)N(C)[C@H](/C=C(\C)C(=O)N1CCC[C@@H]1C(=O)O)C(C)C)C(C)(C)C)C(C)(C)c1cccc(C)c1 | 0.599 | > 3 | 0.07
24 | CN[C@H](C(=O)N[C@H](C(=O)N(C)[C@H](/C=C(\C)C(=O)N1CCC[C@@H]1C(=O)NCCc1ccccc1)C(C)C)C(C)(C)C)C(C)(C)c1ccccc1 | 0.021 | 1.67 | 0.0064
25 | CN[C@H](C(=O)N[C@H](C(=O)N(C)[C@H](/C=C(\C)C(O)c1ccccc1)C(C)C)C(C)(C)C)C(C)(C)c1ccccc1 (single isomer, unassigned) | 0.022 | 0.19 | 0.016
26 | CN[C@H](C(=O)N[C@H](C(=O)N(C)[C@H](/C=C(\C)C(=O)N1CCC[C@@H]1C(=O)OC)C(C)C)C(C)(C)C)C(C)(C)c1ccccc1 | 0.0073 | 0.291 | 0.0015
27 | CN[C@H](C(=O)N[C@H](C(=O)N(C)[C@H](/C=C(/C)C(=O)O)C(C)C)C(C)(C)C)C(C)(C)c1ccccc1 | 0.058 | 2.63 | 0.028
28 | CN[C@H](C(=O)N[C@H](C(=O)N(C)[C@H](/C=C(\C)c1ccccc1)C(C)C)C(C)(C)C)C(C)(C)c1ccccc1 | > 3 | > 3 | > 3
29 | CN[C@H](C(=O)N[C@H](C(=O)N(C)[C@H](/C=C(\C)C(=O)c1ncc[nH]1)C(C)C)C(C)(C)C)C(C)(C)c1ccccc1 | 1.36 | > 3 | 0.218
30 | CN[C@H](C(=O)N[C@H](C(=O)N(C)[C@H](/C=C(\C)C(=O)N1CCC[C@@H]1C(=O)OC)C(C)C)C(C)(C)C)C(C)(C)c1ccc(C)c(C)c1 | 0.015 | 0.363 | 0.0019
31 | CN[C@H](C(=O)N[C@H](C(=O)N(C)[C@H](/C=C(\C)C(=O)N1CCCC[C@@H]1C(=O)O)C(C)C)C(C)(C)C)C(C)(C)c1ccccc1 | 0.27 | > 3 | 0.064
32 | CN[C@H](C(=O)N[C@H](C(=O)N(C)[C@H](/C=C/c1nn[nH]n1)C(C)C)C(C)(C)C)C(C)(C)c1ccccc1 | 1.82 | > 3 | 1.15
33 | CN[C@H](C(=O)N[C@H](C(=O)N(C)[C@H](/C=C(\C)C(O)c1nccs1)C(C)C)C(C)(C)C)C(C)(C)c1ccccc1 (some centres not stated) | 0.019 | 0.364 | 0.013
34 | CN[C@H](C(=O)N[C@H](C(=O)N(C)[C@H](/C=C1\NC(=O)NC1=O)C(C)C)C(C)(C)C)C(C)(C)c1ccccc1 | 1.74 | > 3 | 1.07
35 | CN[C@H](C(=O)N[C@H](C(=O)N(C)[C@H](/C=C(\C)C(=O)c1nccs1)C(C)C)C(C)(C)C)C(C)(C)c1ccccc1 | 0.565 | 1.79 | 0.582
36 | CN[C@H](C(=O)N[C@H](C(=O)N(C)[C@H](/C=C(\C)C(=O)CO)C(C)C)C(C)(C)C)C(C)(C)c1ccccc1 | 0.068 | 1.13 | 0.043
37 | CN[C@H](C(=O)N[C@H](C(=O)N(C)[C@H](/C=C/C(=O)O)C(C)C)C(C)(C)C)C(C)(C)c1ccccc1 | 0.479 | > 3 | 0.191
38 | CN[C@H](C(=O)N[C@H](C(=O)N(C)[C@H](/C=C(\C)C(C)O)C(C)C)C(C)(C)C)C(C)(C)c1ccccc1 (some centres not stated) | 0.172 | 1.46 | 0.063
39 | CN[C@H](C(=O)N[C@H](C(=O)N(C)[C@H](/C=C(\C)C(=O)c1ccccc1)C(C)C)C(C)(C)C)C(C)(C)c1ccccc1 | 1.33 | 1.8 | 0.725
